Measured values: US7741521B2, “Inhibition of bid-induced cell-death using small organic molecules” (The Burnham Institute, priority 2004, dated 2010)
“Also recorded” adds a separate entry of the source.

Tests used:
tBID = target: T1, tBID (Mus musculus, UniProt P70444); test: tBID-induced Smac release from isolated mitochondria; type: biochemical; conditions: for tBID-induced Smac release from mitochondria isolated from HeLa cells: 50 ng tBid
T1 construct: tBID was produced by cleavage of purified BID with caspase-8, as known in the art; made in house; host or cells: E. coli BL21 (BID), then cleaved in vitro with caspase-8
T1 sequence (P70444 60-195 limits assumed): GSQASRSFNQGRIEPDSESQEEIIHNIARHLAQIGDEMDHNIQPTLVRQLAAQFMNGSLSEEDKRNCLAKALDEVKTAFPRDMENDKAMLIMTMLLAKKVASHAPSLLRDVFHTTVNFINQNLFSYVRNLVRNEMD
T1 sequence (P70444 1-59 partner limits assumed): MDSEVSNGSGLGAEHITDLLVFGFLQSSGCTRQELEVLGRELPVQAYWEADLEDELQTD
Description: 100 ng of tBID (cleaved by caspase 8) was pre-incubated with various concentrations of compounds for 15 minutes at 30° C. in HM buffer (10 mM Hepes, pH 7.4, 250 mM Mannitol, 10 mM KCl, 1.5 mM MgCl, 1 mM DTT, 1 mM EGTA), then 50 μg of isolated mitochondria from HCT116 cells were added to a final volume of 50 μl in HM buffer. After 1 hour incubation at 30° C., the samples were centrifuged at 10,000×g for 5 minutes at 4° C. and the supernatant was analyzed by SDS-PAGE/immunoblotting using anti-SMAC antibody.
Compounds II-IX were tested in vitro for their ability to inhibit BID-mediated release of Smac using mitochondria isolated from HeLa cells (FIG. 6A). The first lane represents mitochondria incubated without tBID. All others received 100 ng tBID without or with compounds. Each compound was tested at a concentration of 50 μM. […] To preliminarily investigate the mechanism by which compound II reduces Smac-release from isolated mitochondria, the tBID protein was treated with different concentrations of BI-6C9, after which it was incubated with mitochondria, followed by analysis of the bound and unbound fractions by immunoblotting using BID antibody. The concentration of mitochondria-bound tBID diminished in response to increasing concentrations of compound II.
About 50 ng of tBID cleaved by […] was pre-incubated for about 15 minutes at about 30° C. with various concentrations of compounds I, II, and X. Then, about 50 μg of isolated mitochondria from Hela cells were added to the reaction system. After about 1 hour of incubation at about 30° C., the samples were centrifuged at 10,000×g for about 5 minutes at about 4° C., and the supernatant was analyzed by SDS-PAGE/immunoblotting using Smac antibody. The results of the analysis are presented on FIG. 8. As shown by FIG. 9, compound I is a strong binder for BID.
Some results of comparative studies of compounds I and II are shown on FIG. 10. […] The first lane represents mitochondria incubated without tBID. All others received 50 ng tBid without or with bi-dentate compound.

BCL-XL = BCL-XL (Homo sapiens, UniProt Q07817); test: NMR-binding assay against BCL-XL
Sequence of BCL-XL (Q07817 whole entry, species assumed): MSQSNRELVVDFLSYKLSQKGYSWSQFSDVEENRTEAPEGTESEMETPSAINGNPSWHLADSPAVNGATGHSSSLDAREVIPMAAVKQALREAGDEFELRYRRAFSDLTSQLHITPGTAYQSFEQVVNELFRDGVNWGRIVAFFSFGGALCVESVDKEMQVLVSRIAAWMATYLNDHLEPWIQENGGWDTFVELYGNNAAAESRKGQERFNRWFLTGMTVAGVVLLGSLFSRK

SMILES	tBID-induced Smac release from mitochondria isolated from HeLa cells (tBID)	binding to BCL-XL (BCL-XL)	inhibition at 50 µM (tBID; 50 μM compound, isolated mitochondria)	reduction of tBID-induced Smac release (tBID; 50 μM, 100 ng tBID, mitochondria isolated from HeLa cells)	decrease of Smac release, dose experiment (tBID; at concentrations as low as 20 μM)
Nc1ccc(Sc2ccc(NC(=O)CNC(=O)c3ccc(O)cc3O)cc2)cc1 [Compound I, N-((4-(4-aminophenylthio)phenylcarbamoyl)methyl)-2,4-dihydroxybenzamide]	block	did not show appreciable binding	–	–	–
COc1ccc(S(=O)(=O)NCCCC(=O)Nc2ccc(Sc3ccc(N)cc3)cc2)cc1 [Compound II, N-[4-(4-amino-phenylsulfanyl)-phenyl]-4-(4-methoxy-benzenesulfonylamino)-butyramide]	block	does not bind appreciably; also recorded: did not show appreciable binding	100%	significantly reduce	dramatically decreased
